Source: ChEMBL document CHEMBL1201862, “PubChem BioAssay data set” (2004)
Activity calls are given as the source filed them.

Key:
[1] = molecular target: T1, Heat shock factor protein 1 (Mus musculus, UniProt P38532); assay: inhibition of MG132-induced HSE-luciferase signal, confirmation, cell-based, NIH3T3, luminescence, dose retest (AID 2382); assay type: functional;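 further: NIH3T3 fibroblasts with HSF1-driven luciferase reporter stressed by proteasome inhibitor MG132; luminescence from HSF1-driven luciferase expression after 8 hours of MG132 stress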
T1 sequence (P38532 whole entry): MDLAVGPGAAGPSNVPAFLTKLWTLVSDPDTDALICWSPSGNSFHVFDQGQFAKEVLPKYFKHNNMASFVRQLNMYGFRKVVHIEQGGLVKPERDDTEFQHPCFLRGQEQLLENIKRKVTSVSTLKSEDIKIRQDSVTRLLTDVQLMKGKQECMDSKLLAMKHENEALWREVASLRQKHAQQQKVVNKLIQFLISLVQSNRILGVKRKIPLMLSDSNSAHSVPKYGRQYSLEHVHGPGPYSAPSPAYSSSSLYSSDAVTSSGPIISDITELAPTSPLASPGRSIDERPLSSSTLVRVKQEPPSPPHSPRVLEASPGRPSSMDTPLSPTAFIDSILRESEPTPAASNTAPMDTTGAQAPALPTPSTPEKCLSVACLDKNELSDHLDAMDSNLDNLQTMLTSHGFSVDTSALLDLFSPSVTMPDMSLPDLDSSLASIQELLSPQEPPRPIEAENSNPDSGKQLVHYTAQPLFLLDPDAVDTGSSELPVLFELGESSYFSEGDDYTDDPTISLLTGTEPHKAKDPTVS

[2] = HEp-2 cell cytotoxicity, dose response, cytotoxicity control for RSV inhibitor project, HTS (AID 2410); assay type: functional; details: human respiratory syncytial virus
[3] = inhibitors of SNCA 5'UTR-driven reporter translation, confirmation, H4 neuroglioma cells, luminescence (AID 1988); assay type: functional, cell-based
[4] = inhibitors of firefly luciferase expression or activity, dose response, H4 neuroglioma cells, luminescence (AID 1990); assay type: functional, cell-based
[5] = Luminescence Cell-Based Dose Response HTS to Identify Inhibitors of 5'UTR Stem-Loop Driven Prion Protein mRNA Translation in H4 Neuroglioblastoma Cells. [Related pubchem assays: 1827 (Project Summary), 1813 (Primary HTS)]; assay type: functional
INS1 = assay: beta cell apoptosis inhibitors, cytokine rescue, dose response, luminescence, retest (AID 449756); assay type: functional, cell-based; details: Rattus norvegicus;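 further: cell death triggered by IL-1 beta plus TNF-alpha plus IFN-gamma mixture; protective hits raise ATP signal compared with cytokine alone wells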
[6] = Luminescence Cell-Based Dose Retest to Confirm Inhibitors of Cancer Stem Cells. [Related pubchem assays (depositor defined):AID2717, AID2721]; assay type: functional; details: Homo sapiens
Cytochrome P450 2C19 = Cytochrome P450 2C19 (Homo sapiens, UniProt P33261); assay: Cytochrome panel assay with activity outcomes. Panel member name: p450-cyp2c19 Compounds with AC50 equal or less than 10 uM are considered active; assay type: functional
Cytochrome P450 3A4 = Cytochrome P450 3A4 (Homo sapiens, UniProt P08684);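 further: CYP3A4 tested as one member of a cytochrome P450 panel screen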
[7] = system: Streptococcus sp. 'group A'; assay: growth inhibition of control SK(-) GAS strain, dose response, counter-screen for streptokinase expression inhibitor project, luminescence, kanamycin, BacTiterGlo, confirmation (AID 1900); assay type: functional, organism-based
Streptokinase A = molecular target: T2, Streptokinase A (Streptococcus pyogenes serotype M1, UniProt P10520); assay: S. pyogenes streptokinase expression inhibitors, potency, dose response, plasminogen activation absorbance, OD405 (AID 1914); assay type: functional, Streptococcus pyogenes M1 GAS;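 further: secreted streptokinase activity via plasminogen activation per viability signal from cell pellet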
T2 sequence (P10520 whole entry): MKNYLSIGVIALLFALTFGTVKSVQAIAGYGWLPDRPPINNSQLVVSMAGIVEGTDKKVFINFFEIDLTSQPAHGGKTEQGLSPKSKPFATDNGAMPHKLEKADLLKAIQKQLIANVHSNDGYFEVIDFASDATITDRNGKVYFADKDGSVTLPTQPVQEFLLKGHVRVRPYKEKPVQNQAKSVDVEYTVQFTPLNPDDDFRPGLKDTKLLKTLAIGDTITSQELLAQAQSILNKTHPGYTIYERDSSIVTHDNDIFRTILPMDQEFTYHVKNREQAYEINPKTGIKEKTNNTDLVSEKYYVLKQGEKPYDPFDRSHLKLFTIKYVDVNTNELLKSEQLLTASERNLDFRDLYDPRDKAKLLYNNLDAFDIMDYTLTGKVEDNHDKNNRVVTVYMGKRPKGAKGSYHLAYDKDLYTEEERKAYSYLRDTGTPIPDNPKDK

Streptococcus = assay: Group A Streptococcus viability loss, dose response, counter-screen for streptokinase expression inhibitor project, luminescence, BacTiterGlo (AID 1915); assay type: functional, organism-based;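 further: potency for reduction of bacterial viability or growth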
[8] = inhibitors of intracellular T. cruzi replication, confirmation, NIH3T3 host cells, beta-gal luminescence (AID 2044); assay type: functional, cell-based;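 further: intracellular parasites grown in NIH/3T3 mouse fibroblasts as host cells; luminescent beta-galactosidase reporter signal from transgenic T. cruzi replicating inside host cells; inhibitors lower the luminescence signal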
[9] = cytotoxicity toward NIH3T3 fibroblasts, dose response, counter-screen, cell-based, ATP luminescence, mouse fibroblasts (AID 2010); assay type: functional;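 further: cells exposed to compound for about 90 hours before reading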

Cytochrome P450 2C19, sequence (P33261 whole entry): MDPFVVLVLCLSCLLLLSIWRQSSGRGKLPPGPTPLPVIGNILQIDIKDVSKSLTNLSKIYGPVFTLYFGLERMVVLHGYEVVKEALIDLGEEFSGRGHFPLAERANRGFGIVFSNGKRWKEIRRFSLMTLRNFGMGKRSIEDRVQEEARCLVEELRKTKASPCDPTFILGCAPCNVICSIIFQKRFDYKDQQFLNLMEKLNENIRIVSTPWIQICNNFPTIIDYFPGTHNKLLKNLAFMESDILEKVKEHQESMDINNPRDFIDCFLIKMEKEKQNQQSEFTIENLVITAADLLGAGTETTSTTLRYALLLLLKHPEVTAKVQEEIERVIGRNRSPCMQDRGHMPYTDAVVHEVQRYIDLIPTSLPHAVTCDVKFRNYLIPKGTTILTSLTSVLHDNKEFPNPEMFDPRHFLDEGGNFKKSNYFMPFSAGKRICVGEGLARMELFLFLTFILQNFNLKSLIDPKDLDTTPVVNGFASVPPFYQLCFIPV
Cytochrome P450 3A4, sequence (P08684 whole entry): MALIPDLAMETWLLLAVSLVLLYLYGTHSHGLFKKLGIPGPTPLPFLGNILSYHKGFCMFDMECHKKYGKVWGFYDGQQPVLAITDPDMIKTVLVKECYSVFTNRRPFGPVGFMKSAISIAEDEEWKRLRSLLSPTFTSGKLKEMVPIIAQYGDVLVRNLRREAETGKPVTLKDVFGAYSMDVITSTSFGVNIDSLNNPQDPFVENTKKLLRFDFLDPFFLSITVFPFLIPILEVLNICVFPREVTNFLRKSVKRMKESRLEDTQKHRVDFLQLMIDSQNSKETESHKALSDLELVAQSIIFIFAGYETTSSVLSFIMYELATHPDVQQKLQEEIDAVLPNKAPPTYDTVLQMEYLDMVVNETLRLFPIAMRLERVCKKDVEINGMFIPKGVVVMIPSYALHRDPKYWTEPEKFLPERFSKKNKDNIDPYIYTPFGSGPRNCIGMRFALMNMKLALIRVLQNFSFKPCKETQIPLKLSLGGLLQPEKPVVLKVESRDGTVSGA

O=C(NCc1ccco1)C1CCN(S(=O)(=O)c2cccc([N+](=O)[O-])c2)CC1
EC50 [1]: > 195 µM (not active)

COc1ccc([C@@H]2C[C@@H](c3ccccc3)Oc3c(C)ccc(C(C)C)c32)cc1
EC50 [1]: > 195 µM (not active)

Cc1ccc(CSCc2ccc(C(=O)NCCC(C)C)o2)cc1
CC50 [2]: 20.2 µM (active)

CCCCCSc1nc(C)c(CC(=O)O)c(O)n1
EC50 [1]: > 195 µM (not active)

Cc1cc(Nc2ccc(Br)cc2)nc(-c2ccccc2O)n1
CC50 [2]: 31.9 µM (active)

CCOc1ccc(-n2c(SCC(=O)Nc3nccs3)nc3c(c2=O)SCC3)cc1
EC50 [3]: 12.8 µM (active) | EC50 [4]: 11.7 µM (active) | EC50 [5]: 19.1 µM (active)

CCS(=O)(=O)c1ccc(OC)c(N=Nc2ccc(O)c3ncccc23)c1
AC50 (INS1): 8.44 µM (active)

COc1cc(C(=O)N2CCN(C(=O)CC(C)C)CC2)cc(OC)c1OC
EC50 [1]: 9.31 µM (active)

COc1ccc(OC)c(NC(=O)C2CCCN(S(=O)(=O)c3c(C)nn(C)c3C)C2)c1 (stereo not given)
EC50 [1]: > 195 µM (not active)

Brc1ccccc1-c1nnc2sc(Cc3ccccc3)nn12
EC50 [3]: > 120 µM (not active) | EC50 [4]: 64.7 µM (active) | EC50 [5]: > 120 µM (not active)

Cc1cc(C)cc(NC(=O)NCC(O)COc2ccc([N+](=O)[O-])cc2)c1 (stereo not given)
CC50 [2]: > 50 µM (active)

CSc1ccccc1OCc1cc(C(=O)N2CCc3c(Cl)cccc3C2)no1
AC50 (INS1): 7.1 µM (active)

COc1cc(CNc2ccc(CNc3nc[nH]n3)cc2)ccc1OCc1ccccc1
AC50 [6]: 2.25 µM (active)

C[C@@]12CC[C@H](O)C[C@@H]1CC[C@H]1[C@@H]2C[C@@H](O)[C@]2(C)[C@@H](C3=CC(=O)OC3)CC[C@]12O
AC50 (Cytochrome P450 2C19): inconclusive

COC(=O)c1cn(S(=O)(=O)c2ccccc2)c2ccccc12
EC50 [3]: > 120 µM (not active) | EC50 [4]: > 120 µM (not active) | EC50 [5]: > 120 µM (not active)

Cc1ccc(OCC(=O)Nc2ccccc2C(=O)N2CCCCC2)cc1
EC50 [1]: > 195 µM (not active)

Cc1ccc(C(=O)C[n+]2ccc(Cc3ccccc3)cc2)cc1
EC50 [3]: 10.5 µM (active) | EC50 [4]: 14.3 µM (active) | EC50 [5]: 13.7 µM (active)

CC1CCCN(CC(O)COCC2COc3ccccc3O2)C1 (stereo not given)
AC50 (Cytochrome P450 2C19; read-out: AC50): 5.01 µM (inconclusive)

NC(CC(=O)Nc1cc(C(F)(F)F)ccc1Cl)=NO
AC50 (Cytochrome P450 2C19): inconclusive | AC50 (Cytochrome P450 3A4): 3.98 µM (inconclusive)

Cc1ccc(C(NC(=O)NC(C)c2ccccc2)C(Cl)(Cl)Cl)cc1F (stereo not given)
EC50 [3]: > 120 µM (not active) | EC50 [7]: 3.25 µM (active) | EC50 [4]: 12 µM (active) | EC50 (Streptokinase A): 7.32 µM (active) | EC50 [5]: 18.7 µM (active) | EC50 (Streptococcus): 99.7 µM (active)

COc1ccc(COC(=O)N/N=C2/C[C@@H](O)[C@@H](O)[C@@H]3[C@H]4C(=O)N(c5ccc(F)cc5F)C(=O)[C@@H]4CC[C@H]23)cc1
AC50 (Cytochrome P450 3A4): 6.31 µM (inconclusive)

Cc1cc(C)cc(N2C(=O)CN(Cc3ccccc3)C2=S)c1
EC50 [1]: > 195 µM (not active)

CCCOc1ccc(Cn2c(=O)oc3ccc(C)cc32)cc1OC
EC50 [1]: > 195 µM (not active)

Cc1ccc(-n2nc3c(N4CCC(C(=O)NCCc5cccs5)CC4)nnc(C)c3c2C)cc1
EC50 [4]: 19.2 µM (active) | EC50 [5]: > 120 µM (not active)

COCCCNC(=O)Cn1nnc(-c2ccc(NC(=O)c3cccnc3)cc2)n1
AC50 (INS1): 3.95 µM (active)

COc1ccc(-c2csc(N(CCc3ccc(OC)c(OC)c3)C(=O)COc3ccccc3)n2)cc1
EC50 [1]: > 195 µM (not active)

CCCC1CCC(c2ccc(C(=O)NN)cc2)CC1 (stereo not given)
AC50 (INS1): 10.9 µM (active)

Cc1ccc2c(c1)N(C(=O)CCC(=O)N1CCN(c3cccc(C)c3C)CC1)CCO2
CC50 [2]: 5.57 µM (active)

CCOC(=O)c1[nH]c(C)c(C(=O)C2=C(O)C(=O)N(CCN3CCOCC3)C2c2cccs2)c1C (stereo not given)
AC50 (Cytochrome P450 3A4): 14.1 µM (inconclusive)

O=C(O)c1ccc(Cl)c(S(=O)(=O)N(Cc2ccccc2)c2ccc(F)cc2)c1
AC50 [6]: 31.2 µM (active)

CC1C=Cc2ccccc2N1C(=O)c1ccccc1 (stereo not given)
EC50 [1]: > 195 µM (not active)

CC(C)Oc1cccc(C(=O)NC(=S)Nc2ccccc2)c1
EC50 [1]: > 195 µM (not active)

Oc1ncnc2c1sc1nc3c(c(-c4ccc(Cl)cc4)c12)CCC3
CC50 [2]: > 50 µM (active)

Cc1cccc(NC(=O)c2[nH]cnc2C(=O)NCC(=O)OC(C)(C)C)c1
CC50 [2]: > 50 µM (active)

O=C(c1cccc(S(=O)(=O)N2CCOCC2)c1)N(Cc1nnc(-c2ccccc2Cl)o1)C1CC1
EC50 [1]: > 195 µM (not active)

CCOc1ccc(OCC)c(NC(=O)CSc2nc3ccccc3c(=O)n2C)c1
EC50 [3]: 69.6 µM (active) | EC50 [4]: 29.5 µM (active) | EC50 [5]: 71.4 µM (active)

CCN=C(S)NC1CC2CCCC(C1)N2Cc1ccco1 (stereo not given)
AC50 (Cytochrome P450 2C19; read-out: AC50): 14.1 µM (inconclusive)

CCOC(=O)C1(Cc2ccccc2)CCCN(CCCn2cccn2)C1 (stereo not given)
EC50 [1]: > 195 µM (not active)

CCCc1nc2ccccc2c(C(=O)OCC(=O)Nc2ccc(S(=O)(=O)N3CCOCC3)cc2)c1CC
EC50 [7]: 18.1 µM (active) | EC50 (Streptokinase A): 26 µM (active) | EC50 (Streptococcus): 52.8 µM (active) | AC50 [6]: 4.04 µM (active)

CCOc1ncccc1C(=O)Nc1ccc(F)cc1
CC50 [2]: 46.3 µM (active)

COc1ccc(/C=C/C(=O)c2ccccc2)cc1Cn1nnc2ccccc21
AC50 [6]: 4.11 µM (active)

CC(=O)c1cccc(NC(=O)C2CC(=O)N(CCc3ccccc3)C2)c1 (stereo not given)
EC50 [1]: > 195 µM (not active)

Cc1cc(Nc2nc(Cl)c(Cl)cc2Cl)n(-c2ccccc2)n1
AC50 [6]: 3.95 µM (active)

COc1ccc(CNC(=O)CCCNC(=O)c2ccc(Cl)cc2)cc1OC
EC50 [1]: > 195 µM (not active)

COc1ccc(OC)c(N(CC(=O)Nc2ccccc2)S(C)(=O)=O)c1
EC50 [1]: > 195 µM (not active)

CC(C)c1ccccc1OCC(O)CN(CC(O)COc1cccc2ccccc12)C(C)C (stereo not given)
EC50 [7]: 4.05 µM (active) | EC50 (Streptococcus): 7.04 µM (active) | AC50 [6]: 2.82 µM (active) | EC50 [8]: 3.45 µM (active) | EC50 [9]: > 30 µM (not active)

Cn1c(CCC(=O)Nc2ccc(N3CCOCC3)cc2)nc(=O)c2ccccc21
AC50 (Cytochrome P450 2C19; read-out: AC50): 35.5 µM (inconclusive)

Cc1ccc(S(=O)(=O)N(C)c2ccc(OCc3cccc(C)c3)cc2)cc1
AC50 [6]: 0.898 µM (active)

CC(C)NC(=O)C(C)n1cccc1C(=O)c1ccccc1 (stereo not given)
AC50 (Cytochrome P450 3A4): 15.8 µM (inconclusive)

COc1ccc(C2C(C(=O)c3ccc(Cl)cc3)=C(O)C(=O)N2CCN2CCOCC2)c(OC)c1 (stereo not given)
AC50 (Cytochrome P450 2C19; read-out: AC50): 39.8 µM (inconclusive) | AC50 (Cytochrome P450 3A4): 20 µM (inconclusive)

NC(=O)N/N=C/c1ccc2cccc(OCc3ccccc3)c2n1
EC50 [3]: 61 µM (active) | EC50 [4]: 17.8 µM (active) | EC50 [5]: > 120 µM (not active)

C/C(=N\NC(=O)CN1CCN(Cc2ccccc2)CC1)c1cccs1
EC50 [1]: > 195 µM (not active)

Fc1ccc(CO/N=C/C2=C(Cl)c3ccccc3CC2)cc1
EC50 [7]: 6.39 µM (active) | EC50 [1]: > 195 µM (not active) | EC50 (Streptokinase A): 13.5 µM (active) | EC50 (Streptococcus): > 150 µM (not active)

COc1cccc(/C=N/NC(=O)CCCC(=O)NC2CCCCC2)c1
EC50 [3]: 15.6 µM (active) | EC50 [4]: > 120 µM (not active) | EC50 [5]: > 120 µM (not active)

CCO/C(O)=C(/C=N/c1ccccc1)[N+](=O)[O-]
AC50 (Cytochrome P450 2C19; read-out: AC50): 14.1 µM (inconclusive)

c1ccc2nc(-c3ccncc3)ccc2c1
CC50 [2]: 25.4 µM (active)

COc1cc(OC)c2cc(-c3ccncc3)cnc2c1
AC50 (Cytochrome P450 2C19; read-out: AC50): 31.6 µM (inconclusive) | AC50 (Cytochrome P450 3A4): 0.316 µM (inconclusive)
